Assay results: ChEMBL document CHEMBL1158350, “Physicochemical and biological characterization of novel macrocycles derived from o-phthalaldehyde” (2009)
In brackets after ≈: the same amount, converted by molar mass. Values belong to the molecule of their own block, whether it stands above or below them. Activity calls are given as the source filed them. No cut-off for these calls is given here.

Key:
Bacillus subtilis [1] = assay: Antibacterial activity against Bacillus subtilis MTCC 619 at 1000 ug/ml after 24 hrs by agar diffusion method; type: functional; conditions: MTCC 619, 24 h, read-out: IZ
Escherichia coli [2] = assay: Antibacterial activity against Escherichia coli MTCC 722 after 24 hrs by liquid dilution method; type: functional; conditions: MTCC 722, 24 h
Fusarium [3] = assay: Antifungal activity against Fusarium at 1000 ug/ml after 3 days by diffusion method; type: functional, organism-based
Bacillus subtilis [4] = assay: Antibacterial activity against Bacillus subtilis MTCC 619 after 24 hrs by liquid dilution method; type: functional; conditions: MTCC 619, 24 h
Aspergillus flavus [5] = assay: Antifungal activity against Aspergillus flavus at 1000 ug/ml after 3 days by diffusion method; type: functional, organism-based
Escherichia coli [6] = assay: Antibacterial activity against Escherichia coli MTCC 722 at 1000 ug/ml after 24 hrs by agar diffusion method; type: functional; conditions: MTCC 722, 24 h, read-out: IZ
Fusarium [7] = assay: Antifungal activity against Fusarium at 500 ug/ml after 3 days by diffusion method; type: functional, organism-based
Staphylococcus aureus [8] = assay: Antibacterial activity against Staphylococcus aureus MTCC 96 after 24 hrs by liquid dilution method; type: functional; conditions: MTCC 96, 24 h
Klebsiella pneumoniae [9] = assay: Antibacterial activity against Klebsiella pneumoniae MTCC 109 after 24 hrs by liquid dilution method; type: functional; conditions: MTCC 109, 24 h
Staphylococcus aureus [10] = assay: Antibacterial activity against Staphylococcus aureus MTCC 96 at 1000 ug/ml after 24 hrs by agar diffusion method; type: functional; conditions: MTCC 96, 24 h, read-out: IZ
Klebsiella pneumoniae [11] = assay: Antibacterial activity against Klebsiella pneumoniae MTCC 109 at 1000 ug/ml after 24 hrs by agar diffusion method; type: functional; conditions: MTCC 109, 24 h, read-out: IZ
Aspergillus flavus [12] = assay: Antifungal activity against Aspergillus flavus at 500 ug/ml after 3 days by diffusion method; type: functional, organism-based

MIC (Escherichia coli [2]): 1 µg/mL (≈ 2.9 µM)
MIC (Bacillus subtilis [4]): 10 µg/mL (≈ 29 µM)
MIC (Staphylococcus aureus [8]): 5 µg/mL (≈ 14.5 µM)
MIC (Klebsiella pneumoniae [9]): 2 µg/mL (≈ 5.81 µM)
SMILES: C1=N/c2ncccc2OCCOc2cccnc2/N=C/c2ccccc2/1
zone of inhibition at 1000 µg/mL (Bacillus subtilis [1]): 38 mm
Activity (Fusarium [3]): Active
Activity (Aspergillus flavus [5]): Active
zone of inhibition at 1000 µg/mL (Escherichia coli [6]): 40 mm
Activity (Fusarium [7]): Active
zone of inhibition at 1000 µg/mL (Staphylococcus aureus [10]): 35 mm
zone of inhibition at 1000 µg/mL (Klebsiella pneumoniae [11]): 32 mm
Activity (Aspergillus flavus [12]): Active

SMILES: Cc1cccc2c1/N=C/c1ccccc1/C=N/c1c(C)cccc1OCCCO2
zone of inhibition at 1000 µg/mL (Bacillus subtilis [1]): 13 mm
Activity (Fusarium [3]): Active
Activity (Aspergillus flavus [5]): Active
zone of inhibition at 1000 µg/mL (Escherichia coli [6]): 12 mm
Activity (Fusarium [7]): Active
zone of inhibition at 1000 µg/mL (Staphylococcus aureus [10]): 15 mm
zone of inhibition at 1000 µg/mL (Klebsiella pneumoniae [11]): 11 mm
Activity (Aspergillus flavus [12]): Active

SMILES: Cc1ccc2c(c1)/N=C/c1ccccc1/C=N/c1cc(C)ccc1OCCO2
zone of inhibition at 1000 µg/mL (Bacillus subtilis [1]): 14 mm
Activity (Fusarium [3]): Active
Activity (Aspergillus flavus [5]): Active
zone of inhibition at 1000 µg/mL (Escherichia coli [6]): 13 mm
Activity (Fusarium [7]): Active
zone of inhibition at 1000 µg/mL (Staphylococcus aureus [10]): 12 mm
zone of inhibition at 1000 µg/mL (Klebsiella pneumoniae [11]): 10 mm
Activity (Aspergillus flavus [12]): Active

SMILES: C1=N/c2cc3ccccc3cc2OCCCOc2cc3ccccc3cc2/N=C/c2ccccc2/1
zone of inhibition at 1000 µg/mL (Bacillus subtilis [1]): 13 mm
Activity (Fusarium [3]): Active
Activity (Aspergillus flavus [5]): Active
zone of inhibition at 1000 µg/mL (Escherichia coli [6]): 13 mm
Activity (Fusarium [7]): Active
zone of inhibition at 1000 µg/mL (Staphylococcus aureus [10]): 14 mm
zone of inhibition at 1000 µg/mL (Klebsiella pneumoniae [11]): 11 mm
Activity (Aspergillus flavus [12]): Active

SMILES: C1=N/c2ccccc2OCCOc2ccccc2/N=C/c2ccccc2/1
zone of inhibition at 1000 µg/mL (Bacillus subtilis [1]): 11 mm
Activity (Fusarium [3]): Active
Activity (Aspergillus flavus [5]): Active
zone of inhibition at 1000 µg/mL (Escherichia coli [6]): 10 mm
Activity (Fusarium [7]): Active
zone of inhibition at 1000 µg/mL (Staphylococcus aureus [10]): 12 mm
zone of inhibition at 1000 µg/mL (Klebsiella pneumoniae [11]): 12 mm
Activity (Aspergillus flavus [12]): Active

SMILES: CO[C@H]1/C=C/O[C@@]2(C)Oc3c(C)c(O)c4c(O)c(c(/C=N/N5CCN(C)CC5)c(O)c4c3C2=O)NC(=O)/C(C)=C\C=C\[C@H](C)[C@H](O)[C@@H](C)[C@@H](O)[C@@H](C)[C@H](OC(C)=O)[C@@H]1C [RIFAMPIN]
zone of inhibition at 1000 µg/mL (Bacillus subtilis [1]): 51 mm
MIC (Escherichia coli [2]): 0.25 µg/mL (≈ 0.304 µM)
MIC (Bacillus subtilis [4]): 10 µg/mL (≈ 12.2 µM)
zone of inhibition at 1000 µg/mL (Escherichia coli [6]): 48 mm
MIC (Staphylococcus aureus [8]): 0.25 µg/mL (≈ 0.304 µM)
MIC (Klebsiella pneumoniae [9]): 0.25 µg/mL (≈ 0.304 µM)
zone of inhibition at 1000 µg/mL (Staphylococcus aureus [10]): 49 mm
zone of inhibition at 1000 µg/mL (Klebsiella pneumoniae [11]): 45 mm

SMILES: C1=N/c2cc3ccccc3cc2OCCOc2cc3ccccc3cc2/N=C/c2ccccc2/1
zone of inhibition at 1000 µg/mL (Bacillus subtilis [1]): 15 mm
Activity (Fusarium [3]): Active
Activity (Aspergillus flavus [5]): Active
zone of inhibition at 1000 µg/mL (Escherichia coli [6]): 14 mm
Activity (Fusarium [7]): Active
zone of inhibition at 1000 µg/mL (Staphylococcus aureus [10]): 15 mm
zone of inhibition at 1000 µg/mL (Klebsiella pneumoniae [11]): 14 mm
Activity (Aspergillus flavus [12]): Active

SMILES: Cc1cccc2c1/N=C/c1ccccc1/C=N/c1c(C)cccc1OCCO2
zone of inhibition at 1000 µg/mL (Bacillus subtilis [1]): 12 mm
Activity (Fusarium [3]): Active
Activity (Aspergillus flavus [5]): Active
zone of inhibition at 1000 µg/mL (Escherichia coli [6]): 11 mm
Activity (Fusarium [7]): Active
zone of inhibition at 1000 µg/mL (Staphylococcus aureus [10]): 14 mm
zone of inhibition at 1000 µg/mL (Klebsiella pneumoniae [11]): 12 mm
Activity (Aspergillus flavus [12]): Active

SMILES: CC1(C)S[C@@H]2[C@H](NC(=O)[C@H](N)c3ccccc3)C(=O)N2[C@H]1C(=O)O [AMPICILLIN]
zone of inhibition at 1000 µg/mL (Bacillus subtilis [1]): 11 mm
zone of inhibition at 1000 µg/mL (Escherichia coli [6]): 8 mm
zone of inhibition at 1000 µg/mL (Staphylococcus aureus [10]): 13 mm
zone of inhibition at 1000 µg/mL (Klebsiella pneumoniae [11]): 7 mm

MIC (Escherichia coli [2]): 2 µg/mL (≈ 5.58 µM)
MIC (Bacillus subtilis [4]): 10 µg/mL (≈ 27.9 µM)
MIC (Staphylococcus aureus [8]): 2 µg/mL (≈ 5.58 µM)
MIC (Klebsiella pneumoniae [9]): 2 µg/mL (≈ 5.58 µM)
SMILES: C1=N/c2ncccc2OCCCOc2cccnc2/N=C/c2ccccc2/1
zone of inhibition at 1000 µg/mL (Bacillus subtilis [1]): 35 mm
Activity (Fusarium [3]): Active
Activity (Aspergillus flavus [5]): Active
zone of inhibition at 1000 µg/mL (Escherichia coli [6]): 32 mm
Activity (Fusarium [7]): Active
zone of inhibition at 1000 µg/mL (Staphylococcus aureus [10]): 30 mm
zone of inhibition at 1000 µg/mL (Klebsiella pneumoniae [11]): 29 mm
Activity (Aspergillus flavus [12]): Active

SMILES: Cc1ccc2c(c1)/N=C/c1ccccc1/C=N/c1cc(C)ccc1OCCCO2
zone of inhibition at 1000 µg/mL (Bacillus subtilis [1]): 13 mm
Activity (Fusarium [3]): Active
Activity (Aspergillus flavus [5]): Active
zone of inhibition at 1000 µg/mL (Escherichia coli [6]): 11 mm
Activity (Fusarium [7]): Active
zone of inhibition at 1000 µg/mL (Staphylococcus aureus [10]): 14 mm
zone of inhibition at 1000 µg/mL (Klebsiella pneumoniae [11]): 12 mm
Activity (Aspergillus flavus [12]): Active

MIC (Bacillus subtilis [4]): 2 µg/mL (≈ 3.44 µM)
SMILES: CN[C@@H]1[C@H](O[C@H]2[C@H](O[C@H]3[C@H](O)[C@@H](O)[C@H](N=C(N)N)[C@@H](O)[C@@H]3N=C(N)N)O[C@@H](C)[C@]2(O)C=O)O[C@@H](CO)[C@H](O)[C@H]1O [STREPTOMYCIN]
zone of inhibition at 1000 µg/mL (Bacillus subtilis [1]): 10 mm
zone of inhibition at 1000 µg/mL (Escherichia coli [6]): 6 mm
zone of inhibition at 1000 µg/mL (Staphylococcus aureus [10]): 12 mm
zone of inhibition at 1000 µg/mL (Klebsiella pneumoniae [11]): 6 mm

SMILES: C1=N/c2ccccc2OCCCOc2ccccc2/N=C/c2ccccc2/1
zone of inhibition at 1000 µg/mL (Bacillus subtilis [1]): 10 mm
Activity (Fusarium [3]): Active
Activity (Aspergillus flavus [5]): Active
zone of inhibition at 1000 µg/mL (Escherichia coli [6]): 11 mm
Activity (Fusarium [7]): Active
zone of inhibition at 1000 µg/mL (Staphylococcus aureus [10]): 11 mm
zone of inhibition at 1000 µg/mL (Klebsiella pneumoniae [11]): 12 mm
Activity (Aspergillus flavus [12]): Active
